Data as given in patent US9988635B2, “Modulation of growth hormone receptor expression and insulin-like growth factor expression” (Antisense Therapeutics Limited, priority 2003, dated 2018).
In the oligonucleotide strings, read from the 5' end, every base follows the letter of its sugar. An asterisk marks phosphorothioate; unmarked linkages are phosphodiester. Other units and linkages are bracketed, terminal groups are in braces. A string of capitals states the bases alone. e = 2'-O-(2-methoxyethyl) (MOE); [5mC] = 5-methylcytosine; d = 2'-deoxy (DNA)

Tested on: human growth hormone receptor mRNA
Assay: Inhibition of human growth hormone receptor mRNA levels in MCF7 cells, quantitative real-time PCR
Format: cell-based
Design: concentration or dose not given beside the values
Conditions: averages from three experiments
Experimental: The human breast carcinoma cell line MCF-7 was obtained from the American Type Culture Collection (Manassas, Va.). MCF-7 cells were routinely cultured in DMEM low glucose (Gibco/Life Technologies, Gaithersburg, Md.) supplemented with 10% fetal calf serum (Gibco/Life Technologies, Gaithersburg, Md.). Cells were routinely passaged by trypsinization and dilution when they reached 90% confluence. Cells were seeded into 96-well plates (Falcon-Primaria #3872) at a density of 7000 cells/well for use in RT-PCR analysis.
When cells reached 65-75% confluency, they were treated with oligonucleotide. For cells grown in 96-well plates, wells were washed once with 100 μL OPTI-MEM™-1 reduced-serum medium (Invitrogen Corporation, Carlsbad, Calif.) and then treated with 130 μL of OPTI-MEM™-1 containing 3.75 μg/mL LIPOFECTIN™ (Invitrogen Corporation, Carlsbad, Calif.) and the desired concentration of oligonucleotide. Cells are treated and data are obtained in triplicate. After 4-7 hours of treatment at 37° C., the medium was replaced with fresh medium. Cells were harvested 16-24 hours after oligonucleotide treatment.
Total RNA was isolated using an RNEASY 96™ kit and buffers purchased from Qiagen Inc. (Valencia, Calif.) following the manufacturer's recommended procedures. Briefly, for cells grown on 96-well plates, growth medium was removed from the cells and each well was washed with 200 μL cold PBS. 150 μL Buffer RLT was added to each well and the plate vigorously agitated for 20 seconds. 150 μL of 70% ethanol was then added to each well and the contents mixed by pipetting three times up and down. The samples were then transferred to the RNEASY 96™ well plate attached to a QIAVAC™ manifold fitted with a waste collection tray and attached to a vacuum source. Vacuum was applied for 1 minute. 500 μL of Buffer RW1 was added to each well of the RNEASY 96™ plate and incubated for 15 minutes and the vacuum was again applied for 1 minute. An additional 500 μL of Buffer RW1 was added to each well of the RNEASY 96™ plate and the vacuum was applied for 2 minutes. 1 mL of Buffer RPE was then added to each well of the RNEASY 96™ plate and the vacuum applied for a period of 90 seconds. The Buffer RPE wash was then repeated and the vacuum was applied for an additional 3 minutes. The plate was then removed from the QIAVAC™ manifold and blotted dry on paper towels. The plate was then re-attached to the QIAVAC™ manifold fitted with a collection tube rack containing 1.2 mL collection tubes. RNA was then eluted by pipetting 140 μL of RNAse free water into each well, incubating 1 minute, and then applying the vacuum for 3 minutes.
Quantitation of growth hormone receptor mRNA levels was accomplished by real-time quantitative PCR using the ABI PRISM™ 7600, 7700, or 7900 Sequence Detection System (PE-Applied Biosystems, Foster City, Calif.) according to manufacturer's instructions. This is a closed-tube, non-gel-based, fluorescence detection system which allows high-throughput quantitation of polymerase chain reaction (PCR) products in real-time. As opposed to standard PCR in which amplification products are quantitated after the PCR is completed, products in real-time quantitative PCR are quantitated as they accumulate. This is accomplished by including in the PCR reaction an oligonucleotide probe that anneals specifically between the forward and reverse PCR primers, and contains two fluorescent dyes. A reporter dye (e.g., FAM or JOE, obtained from either PE-Applied Biosystems, Foster City, Calif., Operon Technologies Inc., Alameda, Calif. or Integrated DNA Technologies Inc., Coralville, Iowa) is attached to the 5′ end of the probe and a quencher dye (e.g., TAMRA, obtained from either PE-Applied Biosystems, Foster City, Calif., Operon Technologies Inc., Alameda, Calif. or Integrated DNA Technologies Inc., Coralville, Iowa) is attached to the 3′ end of the probe. When the probe and dyes are intact, reporter dye emission is quenched by the proximity of the 3′ quencher dye. […]

Going from “272320 (antisense eA*eG*eA*eT*eT*dG*dT*dG*dT*dT*d[5mC]*dA*d[5mC]*d[5mC]*dT*e[5mC]*e[5mC]*eT*e[5mC]*eT) [compound 272320]” to “272321 (antisense eA*eA*e[5mC]*e[5mC]*e[5mC]*dA*dA*dG*dA*dG*dT*d[5mC]*dA*dT*d[5mC]*eA*e[5mC]*eT*eG*eT) [compound 272321]”, the “% INHIB of human growth hormone receptor mRNA levels” value (“% INHIB” below) falls from 70% to 64%.

Going from “272322 (antisense e[5mC]*eT*eG*eG*e[5mC]*dT*d[5mC]*dA*dT*d[5mC]*dA*dA*dT*dA*dT*e[5mC]*eT*eA*eG*e[5mC]) [compound 272322]” to “272323 (antisense eT*eG*eT*eG*eT*d[5mC]*dT*dG*dA*dT*dT*d[5mC]*d[5mC]*dT*d[5mC]*eA*eG*eT*e[5mC]*eT) [compound 272323]”, the “% INHIB” value falls from 84% to 67%.

Going from “272324 (antisense eT*eA*eT*eG*eT*d[5mC]*dA*dT*dT*dG*dG*d[5mC]*dA*dT*dT*eG*eA*eA*eA*eT) [compound 272324]” to “272325 (antisense eA*eA*eG*eG*e[5mC]*dA*dT*dA*dA*dG*dA*dG*dA*dT*d[5mC]*eT*eG*e[5mC]*eT*eT) [compound 272325]”, the “% INHIB” value rises from 53% to 66%.

Going from “272326 (antisense eA*e[5mC]*eT*e[5mC]*eA*dG*d[5mC]*dT*d[5mC]*d[5mC]*dT*dT*d[5mC]*dA*dG*eT*eA*eG*eG*eA) [compound 272326]” to “272327 (antisense eG*eG*eA*e[5mC]*eA*dT*d[5mC]*d[5mC]*d[5mC]*dT*dG*d[5mC]*d[5mC]*dT*dT*eA*eT*eT*e[5mC]*eT) [compound 272327]”, the “% INHIB” value falls from 77% to 60%.

Compared with “272328 (antisense eG*eG*e[5mC]*eA*eT*dT*dG*dT*d[5mC]*d[5mC]*dA*dT*dA*dA*dG*eG*eA*eA*eG*eT) [compound 272328]”, “272329 (antisense eA*e[5mC]*eT*eT*eT*dT*dT*dG*dG*d[5mC]*dA*dT*d[5mC]*dT*dG*e[5mC]*e[5mC]*eT*e[5mC]*eA) [compound 272329]” is lower in “% INHIB” value: 85% for the first, 63% for the second.

Compared with “272330 (antisense eG*eA*eT*eG*e[5mC]*dA*d[5mC]*dT*dT*dT*dT*dT*dG*dG*d[5mC]*eA*eT*e[5mC]*eT*eG) [compound 272330]”, “272331 (antisense e[5mC]*eA*eG*eT*e[5mC]*dG*d[5mC]*dA*dT*dT*dG*dA*dG*dT*dA*eT*eG*eA*eG*eG) [compound 272331]” is higher in “% INHIB” value: 47% for the first, 67% for the second.

First: 272332 (antisense e[5mC]*eT*e[5mC]*eT*eT*dT*dG*dT*d[5mC]*dA*dG*dG*d[5mC]*dA*dA*eG*eG*eG*e[5mC]*eA) [compound 272332]
Second: 272333 (antisense eG*eT*eG*e[5mC]*eT*d[5mC]*dA*d[5mC]*dA*dT*dA*dG*d[5mC]*d[5mC]*dA*e[5mC]*eA*eT*eG*eA) [compound 272333]
The “% INHIB” value of the first is higher: 75% for the first, 72% for the second.

Compared with “272334 (antisense eA*eA*eG*eA*eA*dA*dG*dG*d[5mC]*dT*dA*dA*dG*dG*d[5mC]*eA*eT*eG*eA*eT) [compound 272334]”, “272335 (antisense eA*eA*eA*eT*eA*d[5mC]*dG*dT*dA*dG*d[5mC]*dT*d[5mC]*dT*dT*eG*eG*eG*eA*eA) [compound 272335]” is lower in “% INHIB” value: 61% for the first, 47% for the second.

Compared with “272336 (antisense e[5mC]*eA*eA*eT*e[5mC]*dA*d[5mC]*dT*dG*d[5mC]*dT*dA*d[5mC]*dT*dA*eA*eA*e[5mC]*eA*eG) [compound 272336]”, “272337 (antisense eA*eA*eA*e[5mC]*eA*dT*dA*dG*d[5mC]*d[5mC]*dA*dT*dT*d[5mC]*dA*eA*eT*eG*e[5mC]*eT) [compound 272337]” is lower in “% INHIB” value: 69% for the first, 39% for the second.

Going from “272339 (antisense eG*eT*eT*eT*eT*dA*d[5mC]*dA*dT*dA*dT*d[5mC]*d[5mC]*dA*dA*eA*e[5mC]*eT*eA*eT) [compound 272339]” to “272340 (antisense e[5mC]*eA*eT*e[5mC]*eA*dA*d[5mC]*d[5mC]*dA*dA*dG*dA*dT*dT*dT*eG*eG*eT*eG*eA) [compound 272340]”, the “% INHIB” value falls from 72% to 69%.

Compared with “272341 (antisense eG*eA*eG*eG*e[5mC]*dT*dA*dT*dA*dG*dA*dT*d[5mC]*dT*dT*eA*eT*e[5mC]*eT*e[5mC]) [compound 272341]”, “272342 (antisense eT*eA*eG*eT*eG*dA*dG*dA*dA*dA*dG*dA*dA*dA*dG*eT*eT*eT*e[5mC]*eT) [compound 272342]” is lower in “% INHIB” value: 65% for the first, 45% for the second.

Going from “272343 (antisense eA*eA*eT*eG*e[5mC]*dT*d[5mC]*dT*d[5mC]*dA*dA*dG*dA*dA*dT*eG*eA*eT*eG*eT) [compound 272343]” to “272344 (antisense eA*e[5mC]*eA*e[5mC]*eT*d[5mC]*dA*dA*dT*dT*d[5mC]*dT*dA*dG*d[5mC]*eT*eT*eT*eT*e[5mC]) [compound 272344]”, the “% INHIB” value rises from 48% to 60%.

Going from “272345 (antisense e[5mC]*eA*eT*e[5mC]*eT*dA*dT*dT*dA*d[5mC]*dA*dA*dA*dT*dA*eA*e[5mC]*eA*eT*eG) [compound 272345]” to “272346 (antisense e[5mC]*eT*e[5mC]*eT*eT*dG*dG*dA*dG*dA*dA*dA*dA*d[5mC]*d[5mC]*eA*eT*eA*eG*e[5mC]) [compound 272346]”, the “% INHIB” value rises from 24% to 67%.

Compared with “272347 (antisense eT*e[5mC]*eT*eA*e[5mC]*dA*d[5mC]*dT*dG*dA*dT*dG*dA*dT*dA*e[5mC]*eT*eT*eT*eA) [compound 272347]”, “272348 (antisense e[5mC]*eA*e[5mC]*eA*eG*d[5mC]*dT*dT*dT*dG*dA*dA*dT*dT*dG*eA*eA*eT*eT*eA) [compound 272348]” is lower in “% INHIB” value: 62% for the first, 57% for the second.

Going from “272349 (antisense eA*eG*eT*e[5mC]*eT*dT*d[5mC]*d[5mC]*dA*dA*dA*d[5mC]*dA*d[5mC]*dA*e[5mC]*eA*eG*e[5mC]*eT) [compound 272349]” to “272350 (antisense eA*eG*eG*e[5mC]*eT*dG*dT*dT*dG*dT*dG*dA*dA*dA*dT*eA*eG*eT*eA*eA) [compound 272350]”, the “% INHIB” value falls from 68% to 67%.

Compared with “272351 (antisense eA*eT*eA*eG*eA*dA*dA*dT*dG*dT*dT*dG*dT*d[5mC]*dA*eG*eG*e[5mC]*eT*eG) [compound 272351]”, “272352 (antisense e[5mC]*e[5mC]*eA*eA*eA*dA*dT*dG*dA*d[5mC]*dA*dT*dT*d[5mC]*dT*eG*eA*eG*eA*e[5mC]) [compound 272352]” is higher in “% INHIB” value: 57% for the first, 77% for the second.

Compared with “272353 (antisense eA*eT*eA*eA*eT*dG*dG*d[5mC]*dT*dT*dA*dT*dG*dT*dG*eG*e[5mC]*e[5mC]*eA*e[5mC]) [compound 272353]”, “272354 (antisense eA*eG*eT*eT*eA*dT*dG*dT*dG*dA*d[5mC]*d[5mC]*d[5mC]*dT*dG*eA*eT*eT*eG*eA) [compound 272354]” is lower in “% INHIB” value: 72% for the first, 65% for the second.
